23 compounds from patent US7374919B2 (GlycoZym ApS, priority 1998, dated 2008) can be followed below.

Assay type in all cases: biochemical
The target in one test is T1, β4Gal-T2 (Homo sapiens, UniProt O60909).
T1 construct: An expression construct designed to encode amino acid residues 31-372 of β4Gal-T2 was prepared by RT-PCR; secretion signal of vector pAcGP67 (gp67 leader; own knowledge of the vector) (N); made in house; host or cells: Sf9 (Spodoptera frugiperda) cells, baculovirus; unpurified culture supernatant
T1 sequence (O60909 31-372): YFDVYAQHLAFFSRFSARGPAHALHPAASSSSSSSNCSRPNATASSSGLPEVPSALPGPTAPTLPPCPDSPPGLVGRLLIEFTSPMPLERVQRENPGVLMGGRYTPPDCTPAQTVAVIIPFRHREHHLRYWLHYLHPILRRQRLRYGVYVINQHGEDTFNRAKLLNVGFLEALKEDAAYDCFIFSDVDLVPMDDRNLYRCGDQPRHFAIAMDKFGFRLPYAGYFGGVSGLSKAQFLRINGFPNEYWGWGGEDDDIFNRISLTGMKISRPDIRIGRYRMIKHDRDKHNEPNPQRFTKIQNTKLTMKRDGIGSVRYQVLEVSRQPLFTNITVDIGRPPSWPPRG
Description: β4Gal-T2 galactosyltransferase activity assay (soluble enzyme, media of infected Sf9 cells). To be noted: for inhibition of β4Gal-T2 by high acceptor substrate concentrations: FIGS. 5A and 5B, to higher degree than bovine milk β4Gal-transferase and β4Gal-T3; for donor substrate utilisation by β4Gal-T2 (in words): with the acceptor substrates tested. The text has this:
(§1) The PCR product were cloned into the BamHI site of pAcGP67 (Pharmingen), and the construct sequenced to verify correct insertion and sequence. The plasmid pAcGP67-β4Gal-T2-sol was co-transfected with Baculo-Goldä DNA (Pharmingen) as described previously (Bennett et al., 1996). Recombinant Baculo-virus were obtained after two successive amplifications in Sf9 cells grown in serum-containing medium, and titres of virus were estimated by titration in 24-well plates with monitoring of enzyme activities. Controls included pAcGP67-β4Gal-T3-sol (Almeida et al., 1997) and pAcGP67-GalNAc-T3-sol (Bennett et al., 1996).
(§2) Standard assays were performed in […] total reaction mixtures containing 25 mM Tris (pH 7.5), 10 mM MnCl2, 0.25% Triton X-100, […] UDP-[^14C]-Gal (2,300 cpm/nmol) (Amersham), and varying concentration of acceptor substrates (Sigma) (see Table I for structures). The soluble constructs were assayed with […] of culture supernatant from infected cells, whereas the full length construct was assayed with 1% Triton X-100 homogenates of washed cells. Bovine milk P1,4Gal-transferase (Sigma) was used as control.
Reaction products were quantified by Dowex-1 chromatography. […] The transfer of Gal was evaluated after precipitation by filtration through Whatman GF/C glass fiber filters.

The target of another test is T2, β4Gal-T3 (Homo sapiens, UniProt O60512).
T2 construct: media from Sf9 cells expressing secreted forms of either β4Gal-T2 or -T3 were used as enzyme sources; secretion signal of vector pAcGP67 (gp67 leader; own knowledge of the vector) (N); made in house; host or cells: Sf9 cells, baculovirus; unpurified culture supernatant
Description: β4Gal-T3 galactosyltransferase activity assay (soluble enzyme, Sf9 media). Here is the method: as §1, with “An expression construct designed to encode amino acid residues 31-372 of β4Gal-T2 was prepared by RT-PCR with mRNA from Colo205 cell line, using the primer pair EBER100FOR (5′-[…]; SEQ ID NO: 9) and EBER114 (5′-[…]; SEQ ID NO: 10) with BamH1 restriction sites (FIG. 2). The PCR” for “The PCR”
as §2
(§3) Reaction products were quantified by Dowex-1 chromatography. Assays with hen egg Ovalbumin (Sigma), asialo-fetuin (Sigma), and asialo-agalacto-fetuin (Sigma, treated with bgalactosidase) were performed with the standard reaction mixture modified to contain […] UDP-Gal, 54 mM NaCl, and 0.5 mg Ovalbumin. The transfer of Gal was evaluated after precipitation by filtration through Whatman GF/C glass fiber filters.

Another test deals with T3, Bovine milk β4Gal-T (Bos taurus, UniProt P08037).
T3 construct: Purified bovine milk enzyme; purchased Sigma; host or cells: bovine milk
T3 sequence (P08037 79-402 limits assumed): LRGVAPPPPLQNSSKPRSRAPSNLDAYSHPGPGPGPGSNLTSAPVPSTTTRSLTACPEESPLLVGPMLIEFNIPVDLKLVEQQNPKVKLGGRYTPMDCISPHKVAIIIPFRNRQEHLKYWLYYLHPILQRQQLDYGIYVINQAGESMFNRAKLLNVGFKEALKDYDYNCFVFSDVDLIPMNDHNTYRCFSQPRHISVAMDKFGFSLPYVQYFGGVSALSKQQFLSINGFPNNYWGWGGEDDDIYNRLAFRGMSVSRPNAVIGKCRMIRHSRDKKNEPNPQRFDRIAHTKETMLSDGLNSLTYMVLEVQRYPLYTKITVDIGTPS
Description: Bovine milk β4Gal-transferase activity assay (control enzyme). On the procedure: as §2, §3

Where [1] appears, read: substrate concentration 3 mM, media of infected Sf9 cells, background subtracted.
Setting [2] is: substrate concentration 1 mM, media of infected Sf9 cells, background subtracted.
Where [3] appears, read: substrate concentration 9 mM, media of infected Sf9 cells, background subtracted.

No end group written: not given here.

T2 sequence (O60512 32-393 limits assumed): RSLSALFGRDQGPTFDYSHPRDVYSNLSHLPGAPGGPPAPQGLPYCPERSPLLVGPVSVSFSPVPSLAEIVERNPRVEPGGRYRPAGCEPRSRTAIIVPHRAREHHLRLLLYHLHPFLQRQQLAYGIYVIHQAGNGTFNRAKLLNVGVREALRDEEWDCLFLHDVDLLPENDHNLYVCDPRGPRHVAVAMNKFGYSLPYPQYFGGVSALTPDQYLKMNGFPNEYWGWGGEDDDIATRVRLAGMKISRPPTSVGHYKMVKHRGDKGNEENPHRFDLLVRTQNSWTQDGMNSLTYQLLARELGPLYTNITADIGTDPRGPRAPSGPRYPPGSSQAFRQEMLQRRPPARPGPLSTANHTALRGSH

With `CC(=O)N[C@H]1[C@H](Oc2ccc3c(C)cc(=O)oc3c2)O[C@H](CO)[C@H](O)[C@@H]1O` [4-Me-lumb-β-D-GalNAc], the “β4Gal-T2 activity with acceptor substrate” value on β4Gal-T2 (setting [1]) is 0.0 nmol/min/mL.

As to `Cc1cc(=O)oc2cc(O[C@@H]3O[C@H](CO)[C@H](O)[C@H](O)[C@H]3O)ccc12` [4-Me-lumb-β-D-Gal], at β4Gal-T2 (setting [1]), the “β4Gal-T2 activity with acceptor substrate” value was 0.0 nmol/min/mL.

Take `CC(=O)N[C@H]1[C@H](Oc2ccc3c(C)cc(=O)oc3c2)O[C@H](CO)[C@@H](O)[C@@H]1O` [4-Me-lumb-β-D-GlcNAc]: the “β4Gal-T2 activity with acceptor substrate” value on β4Gal-T2 (setting [2]) turned out to be 0.8 nmol/min/mL; at β4Gal-T2 (setting [1]), 0.6 nmol/min/mL; on β4Gal-T2 (setting [3]) it was 0.4 nmol/min/mL.

As to `CC(=O)N[C@H]1[C@@H](OCc2ccccc2)O[C@H](CO)[C@@H](O)[C@@H]1O` [Bz-α-D-GlcNAc], the entries for the “β4Gal-T2 activity with acceptor substrate” value at β4Gal-T2 (setting [2]), on β4Gal-T2 (setting [1]) and on β4Gal-T2 (setting [3]) were 0.4 nmol/min/mL, 1.1 nmol/min/mL and 1.7 nmol/min/mL, respectively.

In general, Km refers to the substrate concentration at which the rate is half of its maximum. With `CC(=O)N[C@H]1[C@H](OCc2ccccc2)O[C@H](CO)[C@@H](O)[C@@H]1O` [Bz-β-D-GlcNAc], at β4Gal-T3 (β-D-GlcNAc-1-Bz at 2 mM), the “β4Gal-T3 activity with acceptor substrate” value (“β4Gal-T3 activity” below) turned out to be 3.9 nmol/min/mL. The “Bovine milk β4Gal-T activity with acceptor substrate” value on Bovine milk β4Gal-T (β-D-GlcNAc-1-Bz at 0.625 mM) stood at 3.4 nmol/min/µg. Further, the “inhibition of β4Gal-T2 by high acceptor substrate concentrations” value against β4Gal-T2 was “inhibited at high concentrations”. Further, the “β4Gal-T2 activity with acceptor substrate” value at β4Gal-T2 (setting [2]) turned out to be 6.8 nmol/min/mL; at β4Gal-T2 (setting [1]), 3.6 nmol/min/mL; on β4Gal-T2 (setting [3]), 1.5 nmol/min/mL; at β4Gal-T2 (β-D-GlcNAc-1-Bz at 0.25 mM) it was 3.5 nmol/min/mL. The Michaelis constant (Km) at β4Gal-T2 (β4Gal-T2, read-out: apparent Km for acceptor substrate) was 160 µM.

With `CC(=O)N[C@H]1C(O)O[C@H](CO)[C@@H](O)[C@@H]1O` (stereo partly drawn) [D-GlcNAc], the “inhibition of β4Gal-T2 by high acceptor substrate concentrations” value on β4Gal-T2 was “inhibited at high concentrations”. The “β4Gal-T2 activity with acceptor substrate” value at β4Gal-T2 (setting [2]) was 1.4 nmol/min/mL; at β4Gal-T2 (setting [1]), 3.2 nmol/min/mL; on β4Gal-T2 (setting [3]) it was 4.8 nmol/min/mL.

In the case of `CC(=O)N[C@H]1[C@@H](OP(=O)(O)OP(=O)(O)OC[C@H]2O[C@@H](n3ccc(=O)[nH]c3=O)[C@H](O)[C@@H]2O)O[C@H](CO)[C@H](O)[C@@H]1O` [UDP-GalNAc], the “donor substrate utilisation by β4Gal-T2 (in words)” value on β4Gal-T2 is recorded as “did not utilise”.

On to `CC(=O)N[C@H]1[C@@H](OP(=O)(O)OP(=O)(O)OC[C@H]2O[C@@H](n3ccc(=O)[nH]c3=O)[C@H](O)[C@@H]2O)O[C@H](CO)[C@@H](O)[C@@H]1O` [UDP-GlcNAc], for which the “donor substrate utilisation by β4Gal-T2 (in words)” value at β4Gal-T2 is on record as “did not utilise”.

For `O=C[C@H](O)[C@@H](O)[C@H](O)[C@H](O)CO` [glucose], on β4Gal-T2, the “acceptor substrate of soluble β4Gal-T2 activity (in words)” value (“acceptor substrate … (in words)” for short) is recorded as “not an acceptor”.

With `CC(=O)N[C@H]1[C@@H](Oc2ccccc2[N+](=O)[O-])O[C@H](CO)[C@@H](O)[C@@H]1O` [o-Nph-α-D-GlcNAc], the “β4Gal-T2 activity with acceptor substrate” value was 0.4 nmol/min/mL at β4Gal-T2 (setting [2]), 0.8 nmol/min/mL on β4Gal-T2 (setting [1]) and 1.5 nmol/min/mL at β4Gal-T2 (setting [3]).

Regarding `CC(=O)N[C@H]1[C@H](Oc2ccccc2[N+](=O)[O-])O[C@H](CO)[C@H](O)[C@@H]1O` [o-Nph-β-D-GalNAc], the “β4Gal-T2 activity with acceptor substrate” value at β4Gal-T2 (setting [1]) was 0.0 nmol/min/mL.

As to `O=[N+]([O-])c1ccccc1O[C@@H]1O[C@H](CO)[C@H](O)[C@H](O)[C@H]1O` [o-Nph-β-D-Gal], the “β4Gal-T2 activity with acceptor substrate” value at β4Gal-T2 (setting [1]) worked out at 0.0 nmol/min/mL.

Regarding `CC(=O)N[C@@H]1[C@@H](O)[C@H](O)[C@@H](CO)O[C@H]1Sc1ccc([N+](=O)[O-])cc1` [p-Nph-1-thio-β-D-GlcNAc], the “β4Gal-T2 activity with acceptor substrate” value at β4Gal-T2 (setting [2]) stood at 1.2 nmol/min/mL; at β4Gal-T2 (setting [1]) it was 1.6 nmol/min/mL; on β4Gal-T2 (setting [3]) it was 0.2 nmol/min/mL.

For the compound `CC(=O)N[C@H]1[C@H](Oc2ccc([N+](=O)[O-])cc2)O[C@H](CO)[C@@H](O)[C@@H]1O` [p-Nph-β-D-GlcNAc], the “β4Gal-T2 activity with acceptor substrate” value was determined as 3.0 nmol/min/mL at β4Gal-T2 (setting [2]), 2.3 nmol/min/mL on β4Gal-T2 (setting [1]) and 0.9 nmol/min/mL on β4Gal-T2 (setting [3]).

Turning to `COC1OC(COC2OC(CO)C(O)C(O)C2NC(C)=O)C(O)C(O)C1O` [β-D-CLcNAc-(1-6)-α-D-Man-1-OMe], the results for the “β4Gal-T2 activity with acceptor substrate” value at β4Gal-T2 (setting [2]) and at β4Gal-T2 (setting [1]) were 8.5 nmol/min/mL and 11.3 nmol/min/mL, respectively.

`COC1O[C@H](CO)[C@H](O)[C@H](O[C@@H]2O[C@H](CO)[C@H](O)[C@H](O)[C@H]2NC(C)=O)[C@H]1O` (stereo partly drawn) [β-D-GlcNAc-(1-3)-β-D-Gal-1-OMe]: the entries for the “β4Gal-T2 activity with acceptor substrate” value at β4Gal-T2 (setting [2]) and on β4Gal-T2 (setting [1]) were 5.8 nmol/min/mL and 7.7 nmol/min/mL, respectively.

On to `CC(=O)N[C@H]1[C@H](OCc2ccccc2)O[C@H](CO)[C@H](O)[C@@H]1O` [βGalNAc-benzyl], for which the “acceptor substrate … (in words)” value on β4Gal-T2 is listed as “not”.

Consider “*-D-GalNAc-1-(FAPSNYPAL) (not fully specified) [GalNAc-glycopeptide acceptor substrate]”, for which the “β4Gal-T3 activity” value with β4Gal-T3 (glycopeptides at 0.1 mM) is 0.0 nmol/min/mL. In addition, the “Bovine milk β4Gal-T activity with acceptor substrate” value in the test with Bovine milk β4Gal-T (glycopeptides at 0.1 mM) is 0.0 nmol/min/µg. Further, the “β4Gal-T2 activity with acceptor substrate” value with β4Gal-T2 (glycopeptides at 0.1 mM) was 0.0 nmol/min/mL.

Turning to Bz-2-(2-β-D-GlcNAc)-α-D-GlcNAc, the “β4Gal-T2 activity with acceptor substrate” value is 9.9 nmol/min/mL on β4Gal-T2 (setting [2]), 2.6 nmol/min/mL on β4Gal-T2 (setting [1]) and 1.3 nmol/min/mL on β4Gal-T2 (setting [3]).

Take Bz-*-D-GalNAc: on β4Gal-T2 (setting [1]), the “β4Gal-T2 activity with acceptor substrate” value turned out to be 0.0 nmol/min/mL.

As for Lc3Cer, on β4Gal-T2, the “acceptor substrate … (in words)” value is on record as “utilised”.

On to α-lactalbumin, for which the “effect of α-lactalbumin on activity with GlcNAc” value on Bovine milk β4Gal-T (bovine milk enzyme, FIG. 4B) is listed as “inhibited”; at β4Gal-T2 (β4Gal-T2, FIG. 4B), “inhibited”. Also, the “concentration of α-lactalbumin to achieve maximum activity with Glc” value is 0.1 mg/mL on Bovine milk β4Gal-T (bovine milk enzyme, glucose as acceptor) and 0.4 mg/mL on β4Gal-T2 (β4Gal-T2, glucose as acceptor).

As to “β-D-GlcNAC-1-(FAPGSYPAL) (also: O-linked β-D-GlcNAc, site not given here) [synthetic O-linked βGlcNAc-glycopeptide]”, the “β4Gal-T3 activity” value in the test with β4Gal-T3 (glycopeptides at 0.1 mM) came out at 0.9 nmol/min/mL. Besides, the “β4Gal-T2 activity with acceptor substrate” value in the test with β4Gal-T2 (glycopeptides at 0.1 mM) turned out to be 1.3 nmol/min/mL.
